Data from patent US9745348B2 (The University of Manchester, priority 2011, dated 2017).
Read-outs that look alike come from different tables or passages of the source. Where no end group is shown, it is not given here. The star is where a group is joined. FITC = O=C1OC2(c3ccc(O)cc3Oc3cc(O)ccc32)c2ccc(NC(=S)*)cc21; Ahx = NCCCCCC(=O)O

Assays:
[1] = system: fibroblasts Adult (HDFa) cells; assay: MTT viability of fibroblasts over three days; assay type: cell-based, human
Description: (§1) MTT assay: Cell viability and proliferation is widely assessed by the MTT assay as already described previously.
(§2) The fibroblasts cells, Neonatal (HDFn) and Adult (HDFa), were both grown until greater than 80% confluent. […] After 24 hour incubation the culture medium was replaced with fresh medium containing an appropriate amount of the peptide for investigation.
(§3) The viability of the fibroblasts, Adult (HDFa) and Neonatal (HDFn) cells in the presence of surfactants was tested by MTT assay over three days relative to control wells containing cells only.

[2] = system: E. coli, (EC) and S. aureus, (SA); assay: Bacterial growth by optical density, statements for both bacteria; assay type: cell-based, Escherichia coli; Staphylococcus aureus; conditions: 1 wt %; for antibacterial activity of surfactant alone: both SA and EC
Description: Bacteria E. coli, (EC) and S. aureus, (SA) were grown in LB media at 37° C. with continuous shaking for 24 hours. The bacterial concentration was then adjusted such that the absorbance at 600 (A600) was controlled to ca 0.2 unit. The bacteria suspensions with the peptides were incubated in 96-well tissue culture plates. The total medium volume in each well was […]. […] Controls with media only and media with bacteria only were run alongside the peptide bacteria mixed suspensions. Measurements were taken at time t=0, t=20 and t=72 hours using optical density cell plate reader. The optical density (OD) is representative of the relative amount of bacterial growth within the medium.
Interactions of bacteria E. coli, (EC) and S. aureus, (SA) with surfactants were also studied. The bacteria were grown in LB media at 37° C. with continuous shaking for 24 hours. The bacterial concentration was then adjusted such that the absorbance at 600 (A600) was controlled at ca 0.2 unit. The bacteria suspensions with surfactants were incubated in 96-well tissue culture plates. The total medium volume in each well was 200 μL. Again, surfactant concentrations of 1% were used. Controls with media only and media with bacteria only were run alongside the surfactant-bacteria mixed suspensions. Measurements were taken at time t=0, t=20 and t=72 hours using optical density cell plate reader again.

[3] = system: E. coli DH5α and B. subtilis 168; assay type: cell-based, Escherichia coli; Bacillus subtilis; conditions: 1 h
Description: To determine antibacterial activity of peptides, survival rate curves were constructed. Bacteria (E. coli DH5α or B. subtilis 168) were incubated with peptide at varying peptide concentrations at 37° C. for 1 h. Aliquots of 2 μL were withdrawn, diluted and spread on agar plates. After overnight incubation at 37° C., the surviving bacteria were expressed as the percentage of total cells, and survival curves drawn (FIG. 4). Controls were bacteria without peptide. The minimal inhibitory concentrations (MICs) of each peptide were measured by standard microdilution method. The test was done in sterile 96-well plates in a final volume of 200 μL. Aliquots (100 μL) of a bacterial suspension at 1×10^5 (colony-forming units (CFU)/ml) in culture medium were added to […] peptide solution (2-fold serial dilutions in 10 mM PBS buffer). […] The MIC was defined as the lowest concentration of peptide for which there was no visible growth. Each determination was performed at least three times.

[4] = MTT viability of fibroblasts over three days; assay type: cell-based, human; conditions: human, adult fibroblasts (HDFa cells)
Description: as §1, §2, §3

in vitro = assay type: cell-based; conditions: human, neonatal fibroblasts (HDFn cells)
Description: as §1
The fibroblasts cells, Neonatal (HDFn) and Adult (HDFa), were both grown until greater than 80% confluent. The cells were then harvested and seeded into micro well plate at cell densities of 5000 cells/well in a volume […] of medium. After 24 hour incubation the culture medium was replaced with fresh medium containing an appropriate amount of the peptide for investigation.

[5] = system: HeLa and HL60 cancer cell lines; conditions: 24 h
Description: Antitumor activities of peptides were measured using the 3-(4,5-dimethylthiazol-2-yl)-2,-diphenyl tetrazolium bromide (MTT) assay, and the IC50 value was calculated as the concentration of peptide that induced 50% growth inhibition compared to the untreated control.
HeLa and HL60 cells were seeded in 96-well plates (10^5 cells/well) in a complete medium [Iscove's modified dulbecco's medium (IMDM)] with 10% fetal bovine serum (FBS) for 24 h before peptide treatment. […] Following incubation with peptides, 20 μL of a 5 mg/ml solution MTT reagent was added to each well and incubated for 4 h at 37° C. After removing the supernatant, 150 μL of dimethyl sulfoxide (DMSO) was added to dissolve the formazan crystals that remained in the wells. The absorbance was determined using a microplate ELISA Reader at 570 nm. Wells without cells for blanking the spectrophotometer and the cells without peptides were taken as negative controls.

[6] = system: human red blood cells (hRBCs); assay: Hemolytic activity, hemoglobin release; assay type: cell-based; conditions: up to 250 μM, 1 h at 37° C.
Description: Peptide hemolytic activities were measured by determining hemoglobin release by 4% (v/v) suspensions of fresh human erythrocytes at 540 nm. Fresh human red blood cells (hRBCs) from volunteers were centrifuged and washed three times with PBS (pH7.4). 100 μL of hRBCs suspended in PBS at 8% (v/v) were mixed with 100 µL of different series of 2-fold diluted peptides in a sterile 96-well plate. The plates were incubated for 1 h at 37° C., and centrifuged at 1000 g for 5 min. 100 μL aliquots of the supernatant were transferred to new 96-well plates, and hemoglobin release monitored by measuring supernatant absorbance at 540 nm with a microplate ELISA Reader. As negative and positive controls, hRBCs in PBS and 0.1% Triton X-100 were employed. The hemolysis percentage was calculated using the follow equation: % hemolysis=[(Abs540 nm with peptide−Abs540 nm in PBS)/[(Abs540 nm with 0.1% Triton X-100−Abs540 nm in PBS)×100 Observing Bacterial Membrane Lysis by Fluorescence Microscopy

[7] = system: cytokine genes IL2 and IL8 of human lymphocytes; conditions: 10 μM, 1 h
Description: RT-PCR (Reverse Transcription Polymerase Chain Reaction and Real Time Polymerase Chain Reaction): To determine the related gene transcriptional activities about HeLa cell apoptosis and the lymphocyte immunological effects, RT-PCR assays were performed. […] Total RNA from the cells was extracted by Trizol following the manufacturer's instructions (Invitrogen, Britain). Total RNA (1 μg) was subject to cDNA synthesis with random primers (PrimeScript Reverse Transcriptase, Takara, Japan). Real-Time PCR was performed with power SYBR green PCR Master Mix kit (Applied Biosystems, American) using a 7500 real-time PCR system (Applied Biosystems, American) according to the protocol of the manufacturer, and the data were analyzed by relative quantitation of the 2^−ΔΔCt method. Transcriptional levels of related genes were normalized to the values of the house keeping gene β-actin.

[8] = system: NIH 3T3 cells co-cultured with B. subtilis 168 or HL60 cancer cells; assay: Co-culture selectivity, distribution of FITC-labeled peptide by fluorescence microscopy; assay type: cell-based; conditions: 20 μM, 1 hour incubation
Description: To further verify the selective cytotoxicity of G(IIKK)3I-NH2 (SEQ ID NO: 3) in vitro, we added the FITC-labeled G(IIKK)3I-NH2 (SEQ ID NO: 3) to the two co-culture systems containing mammalian cell line NIH 3T3 (model host) and bacteria B. subtilis 168 or cancer cell line (HL 60). Specifically, NIH 3T3 cells were cultured at 37° C. with 5% CO2 in IMDM supplemented with 10% FBS. After reaching an over 80% confluence, the cells were transferred into a 6-well plate containing sterile coverslips at bottom to a final concentration of 1×10^5 cells/well. After overnight culture at 37° C., the medium was replaced with 1 ml B. subtilis 168 suspended in PBS with a density of 1×10^6 CFU/ml or 1 ml HL 60 cells suspended in PBS with a density of 1×10^5 cells/ml. Meanwhile, FITC-labeled G(IIKK)3I-NH2 (SEQ ID NO: 3) dissolved in the same buffer was also added to each well to the final concentration of 20 μM. […]
To further confirm the selective responses and cytotoxicity of the peptides, FITC-labeled G(IIKK)3I-NH2 (SEQ ID NO: 3) was synthesized according to the method described previously by Jullian M, et al (Julian et al 2009). […] After incubation for 1 hour, the distribution of FITC-G(IIKK)3I-NH2 (SEQ ID NO: 3) was observed using fluorescence microscopy and the results are shown in FIG. 12. […]

sodium lauryl ether sulphate [SLES]
MTT results (relative MTT reading) [1]: 0.00
antibacterial activity of surfactant alone [2]: some antibacterial influence

GIIKKIIKKIIKKIIKKI-NH2 [Helix G4, G(IIKK)4 I-NH2]
MICs (minimum inhibitory concentrations) [3]: 0.5 to 8 µM
viability at 24 h, 5 µM [4]: 90%
viability at 24 h, 25 µM [4]: 87%
viability at 24 h, 50 µM [4]: 85%
viability at 24 h, 100 µM [4]: 81%
viability at 48 h, 5 µM [4]: 84%
viability at 48 h, 25 µM [4]: 81%
viability at 48 h, 50 µM [4]: 78%
viability at 48 h, 100 µM [4]: 70%
viability at 72 h, 5 µM [4]: 81%
viability at 72 h, 25 µM [4]: 78%
viability at 72 h, 50 µM [4]: 65%
viability at 72 h, 100 µM [4]: 55%
viability at 24 h, 5 µM (in vitro): 95%
viability at 24 h, 25 µM (in vitro): 85%
viability at 24 h, 50 µM (in vitro): 81%
viability at 24 h, 100 µM (in vitro): 73%
viability at 48 h, 5 µM (in vitro): 92%
viability at 48 h, 25 µM (in vitro): 77%
viability at 48 h, 50 µM (in vitro): 71%
viability at 48 h, 100 µM (in vitro): 65%
viability at 72 h, 5 µM (in vitro): 79%
viability at 72 h, 25 µM (in vitro): 74%
viability at 72 h, 50 µM (in vitro): 65%
viability at 72 h, 100 µM (in vitro): 53%
IC50 [5]: 4 to 25 µM

GIIKKI-NH2 [G(IIKK)I-NH2]
hemolytic activity [6]: inactive

CCCCCCCCCCCC[N+](C)(C)C.[Br-] [Helix C12TAB, Dodecyl trimethylammonium bromide]
MTT results (relative MTT reading) ([1]; HDFa, surfactant 1%, Day 1): 0.00
MTT results (relative MTT reading) ([1]; HDFa, surfactant 1%, Day 2): 0.00
MTT results (relative MTT reading) ([1]; HDFa, surfactant 1%, Day 3): 0.00
growth of bacteria after 72 hours ([2]; 72 hours): no growth of bacteria
antibacterial activity of surfactant alone [2]: significant antibacterial activity

GIIKKIIKKIIKKI-NH2 [Helix G3, G(IIKK)3 I-NH2]
MICs (minimum inhibitory concentrations) [3]: 0.5 to 8 µM
viability at 24 h, 5 µM [4]: 91%
viability at 24 h, 25 µM [4]: 88%
viability at 24 h, 50 µM [4]: 87%
viability at 24 h, 100 µM [4]: 78%
viability at 48 h, 5 µM [4]: 92%
viability at 48 h, 25 µM [4]: 85%
viability at 48 h, 50 µM [4]: 84%
viability at 48 h, 100 µM [4]: 75%
viability at 72 h, 5 µM [4]: 81%
viability at 72 h, 25 µM [4]: 80%
viability at 72 h, 50 µM [4]: 75%
viability at 72 h, 100 µM [4]: 71%
IC50 [5]: 4 to 25 µM
relative transcriptional levels of IL2 and IL8 of lymphocytes [7]: lower or almost equal to that of control cells

cocamidopropyl aetaine [Tt]
antibacterial activity of surfactant alone [2]: some antibacterial influence

FITC-G(IIKK)3I-NH2: N-terminal FITC-labeled G(IIKK)3I-NH2 with 6-aminohexanoic acid (Ahx) between the last amino acid and the thiourea linkage ({FITC-Ahx}-GIIKKIIKKIIKKI-NH2; SMILES CC[C@H](C)[C@H](NC(=O)[C@H](CCCCN)NC(=O)[C@H](CCCCN)NC(=O)[C@@H](NC(=O)[C@@H](NC(=O)[C@H](CCCCN)NC(=O)[C@H](CCCCN)NC(=O)[C@@H](NC(=O)[C@@H](NC(=O)[C@H](CCCCN)NC(=O)[C@H](CCCCN)NC(=O)[C@@H](NC(=O)[C@@H](NC(=O)CNC(=O)CCCCCNC(=S)Nc1ccc2c(c1)C(=O)OC21c2ccc(O)cc2Oc2cc(O)ccc21)[C@@H](C)CC)[C@@H](C)CC)[C@@H](C)CC)[C@@H](C)CC)[C@@H](C)CC)[C@@H](C)CC)C(N)=O)
distribution of green fluorescence of FITC-labeled peptide in co-culture [8]: concentrated in the bacterial clusters or the HL60 cells but not in any part of the 3T3 cells
